Consider two molecules from patent US12077503B2, “Substituted cyclic amides and their use as herbicides” (FMC CORPORATION, priority 2015, dated 2024).

What all share (type): in vivo
Experiment [1] concerns Kochia (Kochia scoparia). Description: Test A preemergence. Particulars: Bassia scoparia, pre-emergence, 240 h, read-out: Plant response rating, Kochia; for pest or weed control at 125 g/ha: 125 g ai/ha, visual rating after approx. 10 d, 0 to 100 scale where 0 is no effect and 100 is complete control. Put shortly:
(§1)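 Visual injury, scored on a 0–100 scale relative to untreated controls, was recorded about 10 d after application. Treatments were a preemergence soil spray over planted seeds or a postemergence spray on plants at the one- to two-leaf stage, 2 to 10 cm tall, all in loam soil–sand blend in the greenhouse.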

Experiment [2] relates to barnyardgrass (Echinochloa crus-galli). Description: Test A preemergence. Particulars: Echinochloa crus-galli, pre-emergence, 240 h, read-out: Plant response rating, Barnyardgrass; for pest or weed control at 125 g/ha: 125 g ai/ha, visual rating after approx. 10 d, 0 to 100 scale where 0 is no effect and 100 is complete control. Put shortly: as §1
Experiment [3] deals with giant foxtail (Setaria faberii). As to the kind of experiment: Test A preemergence. The note with it: Setaria faberi, pre-emergence, 240 h, read-out: Plant response rating, Foxtail, Giant; for pest or weed control at 125 g/ha: 125 g ai/ha, visual rating after approx. 10 d, 0 to 100 scale where 0 is no effect and 100 is complete control. Put shortly:
as §1

The test system of experiment [4] is pigweed (Amaranthus retroflexus). Description: Test A preemergence. Particulars: Amaranthus retroflexus, pre-emergence, 240 h, read-out: Plant response rating, Pigweed; for pest or weed control at 125 g/ha: 125 g ai/ha, visual rating after approx. 10 d, 0 to 100 scale where 0 is no effect and 100 is complete control.
Experiment [5] deals with ragweed (common ragweed, Ambrosia elatior). Description: Test A preemergence. Particulars: Ambrosia artemisiifolia, pre-emergence, 240 h, read-out: Plant response rating, Ragweed; for pest or weed control at 125 g/ha: 125 g ai/ha, visual rating after approx. 10 d, 0 to 100 scale where 0 is no effect and 100 is complete control. The procedure, abridged:
as §1

Experiment [6] concerns ryegrass, Italian (Italian ryegrass, Lolium multiflorum). Description: Test A preemergence. The note with it: Lolium multiflorum, pre-emergence, 240 h, read-out: Plant response rating, Ryegrass, Italian; for pest or weed control at 125 g/ha: 125 g ai/ha, visual rating after approx. 10 d, 0 to 100 scale where 0 is no effect and 100 is complete control. Put shortly:
as §1

The test system of experiment [7] is Galium (catchweed bedstraw, Galium aparine). Description: Test A postemergence. Particulars: Galium, post-emergence, 240 h; for pest or weed control at 125 g/ha: 125 g ai/ha, postemergence. Put shortly:
as §1

In experiment [8] the test system is Kochia (Kochia scoparia). As to the kind of experiment: Test A postemergence. Particulars: Bassia scoparia, post-emergence, 240 h; for pest or weed control at 125 g/ha: 125 g ai/ha, postemergence. The procedure, abridged:
as §1

The test system of experiment [9] is giant foxtail (Setaria faberii). Description: Test A postemergence. The note with it: Setaria faberi, post-emergence, 240 h; for pest or weed control at 125 g/ha: 125 g ai/ha, postemergence. The procedure, abridged:
as §1

Experiment [10] deals with pigweed (Amaranthus retroflexus). Description: Test A postemergence. The note with it: Amaranthus retroflexus, post-emergence, 240 h; for pest or weed control at 125 g/ha: 125 g ai/ha, postemergence. The procedure, abridged:
as §1

In experiment [11] the test system is wheat (Triticum aestivum). As to the kind of experiment: Test A postemergence. Particulars: Triticum aestivum, post-emergence, 240 h; for plant injury at 125 g/ha: 125 g ai/ha, postemergence. Put shortly:
as §1

Experiment [12] relates to barnyardgrass (Echinochloa crus-galli). Description: Test B flooded paddy test. Particulars: Echinochloa crus-galli, Flood, 250 g ai/ha; scale of 0 to 100 where 0 is no effect and 100 is complete control; read-out: Barnyardgrass plant response rating. Put shortly:
(§2)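 Visual ratings (0 none to 100 complete control) are relative to untreated plants, taken 13–15 d after treatment in a greenhouse. Test material went straight into floodwater standing 3 cm above the soil, kept constant, on plants at the 2-leaf stage.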

The subject of experiment [13] is ducksalad (Heteranthera limosa). Description: Test B flooded paddy test. The note with it: Heteranthera limosa, Flood, 250 g ai/ha; scale of 0 to 100 where 0 is no effect and 100 is complete control; read-out: Ducksalad plant response rating. The procedure, abridged: as §2
For the next experiment, the system named is rice (Oryra sativa). As to the kind of experiment: Test B flooded paddy test. The note with it: Oryza sativa, Flood, 250 g ai/ha; scale of 0 to 100 where 0 is no effect and 100 is complete control; read-out: Rice plant response rating. Put shortly: as §2
In experiment [14] the test system is sedge, umbrella (small-flower umbrella sedge, Cyperus difformis). Description: Test B flooded paddy test. The note with it: Cyperus difformis, Flood, 250 g ai/ha; scale of 0 to 100 where 0 is no effect and 100 is complete control; read-out: Sedge, Umbrella plant response rating. Put shortly:
as §2

The mark [15] stands for this setting: Preemergence, 31 g ai/ha, 0 to 100 scale (0 no effect, 100 complete control).
[16] abbreviates: 500 g ai/ha, preemergence, 0 to 100 scale, 0 = no effect, 100 = complete control.

Like-named read-outs stand apart in the source and are kept apart here.

Take `O=C(Nc1cccc(F)c1F)[C@H]1C(=O)N(O)CC[C@@H]1c1ccc(F)cc1` [Compound 805]: the pest or weed control at 125 g/ha (in the experiment with Kochia (Kochia scoparia) [1] (preemergence); in experiment [2] (preemergence); in experiment [3] (preemergence); in [4] (preemergence); in [5] (preemergence); in experiment [6] (preemergence)) was 0% each time. In addition, the pest or weed control at 125 g/ha turned out to be 0% in experiment [7] (visual injury rating after approximately 10 d, read-out: Galium plant response rating (0 to 100 scale, 0 no effect, 100 complete control)); 0% in the experiment on Kochia (Kochia scoparia) [8] (visual injury rating after approximately 10 d, read-out: Kochia plant response rating (0 to 100 scale, 0 no effect, 100 complete control)); 0% in [9] (visual injury rating after approximately 10 d, read-out: Foxtail, Giant plant response rating (0 to 100 scale, 0 no effect, 100 complete control)); 0% in experiment [10] (visual injury rating after approximately 10 d, read-out: Pigweed plant response rating (0 to 100 scale, 0 no effect, 100 complete control)). The pest or weed control at 31 g/ha (in the experiment on Kochia (Kochia scoparia) [1] (setting [15]); in [2] (setting [15]); in experiment [3] (setting [15]); in [4] (setting [15]); in [5] (setting [15]); in [6] (setting [15])) was 0% in each case. For the same molecule, the pest or weed control at 31 g/ha worked out at 0% in experiment [7] (Postemergence, 31 g ai/ha, visual injury after approx. 10 d, 0 to 100 scale, 0 no effect, 100 complete control, read-out: Plant response rating, Galium); 0% with Kochia (Kochia scoparia) [8] (Postemergence, 31 g ai/ha, visual injury after approx. 10 d, 0 to 100 scale, 0 no effect, 100 complete control, read-out: Plant response rating, Kochia); 0% in experiment [9] (Postemergence, 31 g ai/ha, visual injury after approx. 10 d, 0 to 100 scale, 0 no effect, 100 complete control, read-out: Plant response rating, Foxtail, Giant); 0% in experiment [10] (Postemergence, 31 g ai/ha, visual injury after approx. 10 d, 0 to 100 scale, 0 no effect, 100 complete control, read-out: Plant response rating, Pigweed). For the same molecule, the plant injury at 125 g/ha in experiment [11] (visual injury rating after approximately 10 d, read-out: Wheat plant response rating (0 to 100 scale, 0 no effect, 100 complete control)) stood at 0%. Further, the plant injury at 31 g/ha in experiment [11] (Postemergence, 31 g ai/ha, visual injury after approx. 10 d, 0 to 100 scale, 0 no effect, 100 complete control, read-out: Plant response rating, Wheat) is 0%. Also, the pest or weed control at 250 g/ha (in [12]; in [13]; in the experiment on rice (Oryra sativa); in experiment [14]) was 0% in each case.
As for `O=C1NC[C@H](c2cccc(C(F)(F)F)c2)[C@H]1C(=O)Nc1ccccc1C1CC1` [Compound 748], the pest or weed control at 125 g/ha in the experiment on Kochia (Kochia scoparia) [1] (preemergence) is 0%; in experiment [2] (preemergence), 0%; in experiment [3] (preemergence) it was 40%; in experiment [4] (preemergence) it was 0%; in experiment [5] (preemergence) it was 0%; in experiment [6] (preemergence), 0%. In addition, the pest or weed control at 125 g/ha in [7] (visual injury after approximately 10 d, 0 to 100 scale (0 no effect, 100 complete control), read-out: Plant response rating, Galium) is 0%; with Kochia (Kochia scoparia) [8] (visual injury after approximately 10 d, 0 to 100 scale (0 no effect, 100 complete control), read-out: Plant response rating, Kochia), 0%; in experiment [9] (visual injury after approximately 10 d, 0 to 100 scale (0 no effect, 100 complete control), read-out: Plant response rating, Foxtail, Giant), 0%; in experiment [10] (visual injury after approximately 10 d, 0 to 100 scale (0 no effect, 100 complete control), read-out: Plant response rating, Pigweed), 0%. Further, the pest or weed control at 500 g/ha was found to be 0% in the experiment with Kochia (Kochia scoparia) [1] (setting [16]); 30% in [2] (setting [16]); 90% in [3] (setting [16]); 0% in [4] (setting [16]); 0% in experiment [5] (setting [16]); 0% in experiment [6] (setting [16]). Also, the plant injury at 125 g/ha in [11] (visual injury after approximately 10 d, 0 to 100 scale (0 no effect, 100 complete control), read-out: Plant response rating, Wheat) turned out to be 0%. Further, the pest or weed control at 250 g/ha was found to be 0% in experiment [12], 75% in experiment [13], 25% with rice (Oryra sativa) and 0% in [14].
